Data as given in article PMC12298539, “Applying Unbiased, Functional Criteria Allows Selection of Novel Cyclic Peptides for Effective Targeted Drug Delivery to Malignant Prostate Cancer Cells” (Pharmaceutics, 2025).

Columns and labels:
22RV1 = assay: Growth inhibition IC50, parent line; assay type: cell-based; conditions: Homo sapiens; 22RV1 parent line
Method: (§1) PrC cell lines resistant to Estramustine (ESM) were developed as the clinical use of this drug induces significant side effects and drug resistance. The procedure of Mohr was used as described in the Supplementary Information.
(§2) Supplementary Information
(§3) Development of drug resistant cell lines
(§4) Cells were seeded in 3 flasks. […]
(§5) parent cell line was calculated. […]
(§6) to the drug within 2–4 weeks.
(§7) Table S1: IC50 values for parent and Estramustine-resistant prostate cancer cell lines are also multidrug re-sistant to Camptothecin and Docetaxel. Drugs
(§8) Estramustine Camptothecin Docetaxel […]

DU145 = assay: Growth inhibition IC50, parent line; assay type: cell-based; conditions: Homo sapiens, DU-145
Method: as §1, §2, §3, §4, §5, §6, §7, §8

PC3 = assay: Growth inhibition IC50, parent line; assay type: cell-based; conditions: Homo sapiens, PC-3
Method: as §1, §2, §3, §4, §5, §6, §7, §8

[1] = system: Estramustine-resistant 22RV1; assay: Growth inhibition IC50, Estramustine-resistant line; assay type: cell-based; conditions: Homo sapiens; 22RV1 Estramustine-resistant line
Method: as §1, §2, §3, §4, §5, §6, §7, §8

[2] = system: Estramustine-resistant DU145; assay: as above; assay type: cell-based; conditions: Homo sapiens, DU-145
Method: as §1, §2, §3, §4, §5, §6, §7, §8

[3] = system: Estramustine-resistant PC3; assay: as above; assay type: cell-based; conditions: Homo sapiens
Method: as §1, §2, §3, §4, §5, §6, §7, §8

PC3 tumors = assay: Xenograft anti-tumor efficacy; assay type: in vivo, athymic nu/nu mice; conditions: 5 mg/kg, tail vein, twice weekly for four weeks, n = 5
Method: As described above, a xenograft tumor model was established by injecting mice with PC3 cells. Tumor growth was monitored regularly, and mice were randomized into one of four groups (n = 5 per group) when their tumor volume reached approximately 140 mm^3 (approx. day 16 post-injection) so as to ensure the equal distribution of tumor burden among the groups. The mice were treated twice weekly for four weeks via tail vein injection as follows. Group 1 (Control) received vehicle only; Group 2 (free SN-38) received SN38 at a dose of 5 mg/kg; Group 3 (PDC 10 mg/kg) received PrC10-SN38 at a dose of 10 mg/kg; Group 4 (PDC 20 mg/kg) received PrC10-SN38 at a dose of 20 mg/kg. Tumor volume was measured regularly until day 44 from the initiation of treatment, after which all mice were euthanized via CO2 inhalation.

PrC cell lines = assay: Dose-response of PrC cell lines to ESM; assay type: cell-based; conditions: Homo sapiens; range over the PrC cell lines, Figure S2; read-out: IC50s for ESM
Method: as §1
ESM-resistant lines developed following more than 6 months of exposure to the drug.
as §2, §3
Cells were seeded in 3 flasks.
parent cell line was calculated.
as §6

| Compound | IC50 (22RV1) | IC50 (DU145) | IC50 (PC3) | IC50 [1] | IC50 [2] | IC50 [3] | tumor growth (PC3 tumors) | IC50 (PrC cell lines) |
| --- | --- | --- | --- | --- | --- | --- | --- | --- |
| CC[C@@]1(O)C(=O)OCc2c1cc1n(c2=O)Cc2cc3ccccc3nc2-1 [Camptothecin] | 0.007 µM | 0.01 µM | 0.045 µM | 0.023 µM | 0.1 µM | 0.2 µM | – | – |
| CC(=O)O[C@@]12CO[C@@H]1C[C@H](O)[C@@]1(C)C(=O)[C@H](O)C3=C(C)[C@@H](OC(=O)[C@H](O)[C@@H](NC(=O)OC(C)(C)C)c4ccccc4)C[C@@](O)([C@@H](OC(=O)c4ccccc4)[C@H]21)C3(C)C [Docetaxel] | 0.003 µM | 0.003 µM | 0.004 µM | 0.004 µM | 0.005 µM | 0.01 µM | – | – |
| CCc1c2c(nc3ccc(O)cc13)-c1cc3c(c(=O)n1C2)COC(=O)[C@]3(O)CC [free SN-38, SN-38] | – | – | – | – | – | – | did not inhibit tumor growth | – |
| C[C@]12CC[C@@H]3c4ccc(OC(=O)N(CCCl)CCCl)cc4CC[C@H]3[C@@H]1CC[C@@H]2O [Estramustine] | 8 µM | 8 µM | 10 µM | 30 µM | 8 µM | 24 µM | – | 1.4 to 1.75 µM |
